Source: the NIST ThermoML archive (doi:10.1021/acs.jced.5b00597)
Values joined by “and” are separate entries in the source; they are usually repeats but may differ in a detail not shown here. Equal entries are not always repeated.

Experiment: molar heat capacity at constant pressure
Conditions: Liquid, Flow calorimetry

FC(F)CC(F)(F)F [1,1,1,3,3-pentafluoropropane]
Conditions	molar heat capacity at constant pressure
277.89 K, 518.3 kPa	170.11 J/K/mol
277.9 K, 519 kPa	171.31 J/K/mol
282.87 K, 509.6 kPa	171.72 J/K/mol
282.87 K, 511 kPa	172.65 J/K/mol
287.9 K, 513.9 kPa	173.46 J/K/mol
287.92 K, 512.5 kPa	173.46 J/K/mol and 171.85 J/K/mol
292.91 K, 518.1 kPa	179.09 J/K/mol
297.89 K, 514.6 kPa	177.61 J/K/mol and 177.21 J/K/mol
302.89 K, 517.2 kPa	178.42 J/K/mol
302.9 K, 518 kPa	179.09 J/K/mol
307.87 K, 519.5 kPa	181.23 J/K/mol
307.88 K, 504.1 kPa	181.1 J/K/mol
307.88 K, 514.4 kPa	182.17 J/K/mol [middle of 4 runs]
307.88 K, 808.1 kPa	181.5 J/K/mol
307.89 K, 517.9 kPa	182.71 J/K/mol
307.89 K, 518.2 kPa	181.77 J/K/mol
307.89 K, 522.2 kPa	181.63 J/K/mol
307.92 K, 415.8 kPa	180.7 J/K/mol
307.93 K, 520.4 kPa	182.71 J/K/mol
312.89 K, 514.5 kPa	181.77 J/K/mol
313.89 K, 520.4 kPa	180.96 J/K/mol
317.9 K, 522.2 kPa	183.24 J/K/mol
317.9 K, 522.6 kPa	181.9 J/K/mol
322.94 K, 518.4 kPa	185.66 J/K/mol
322.95 K, 517.7 kPa	184.85 J/K/mol and 184.58 J/K/mol
327.96 K, 806.4 kPa	187.13 J/K/mol
327.97 K, 808.9 kPa	185.92 J/K/mol
332.97 K, 815 kPa	189.41 J/K/mol
332.97 K, 816.5 kPa	187.8 J/K/mol
337.98 K, 810.3 kPa	190.62 J/K/mol
342.96 K, 817.2 kPa	192.22 J/K/mol
342.99 K, 813.6 kPa	192.49 J/K/mol
